A short description of test [1]: Inhibition of FITC-labeled EZH2 (40 to 63 residues) (unknown origin)-recombinant N-terminal 6His-SUMO tagged human EED (81 to 441 residues) expressed in Escherichia coli BL21 (DE3) cells protein-protein interaction incubated for 2 hrs by fluorescence polarization competition assay. In general terms: Polarisation of emitted light reports the rotation of a fluorescent probe.

Test [2] deals with Pfeiffer. Nature of the test: Antiproliferative activity against human Pfeiffer cells assessed as inhibition of cell growth incubated for 72 hrs by CellTiter-Glo assay. It counts as functional, cell-based. For orientation: In ATP-based viability assays light output follows the ATP content of the culture.
In test [3] the test system is SUD4. The test is described as follows: Induction of cell cycle arrest in human SU-DHL-4 cells assessed as decrease of cells in G2/M phase at 5 uM incubated for 3 days by PI/RNase staining based analysis (reference value: 29.2 %). It counts as functional. The arrangement: scale not given: the % may be the effect or the level left. The settings on record: time 3 day.

The target of test [4] is T1, Polycomb protein EED (Homo sapiens, UniProt O75530). The test is described as follows: Binding affinity to recombinant N-terminal 6His-SUMO tagged human EED (81 to 441 residues) expressed in Escherichia coli BL21 (DE3) cells assessed as binding constant (Kon) measured after 120 sec by SPR-based binding assay.
Target sequence in this assay (O75530 2-441 limits assumed): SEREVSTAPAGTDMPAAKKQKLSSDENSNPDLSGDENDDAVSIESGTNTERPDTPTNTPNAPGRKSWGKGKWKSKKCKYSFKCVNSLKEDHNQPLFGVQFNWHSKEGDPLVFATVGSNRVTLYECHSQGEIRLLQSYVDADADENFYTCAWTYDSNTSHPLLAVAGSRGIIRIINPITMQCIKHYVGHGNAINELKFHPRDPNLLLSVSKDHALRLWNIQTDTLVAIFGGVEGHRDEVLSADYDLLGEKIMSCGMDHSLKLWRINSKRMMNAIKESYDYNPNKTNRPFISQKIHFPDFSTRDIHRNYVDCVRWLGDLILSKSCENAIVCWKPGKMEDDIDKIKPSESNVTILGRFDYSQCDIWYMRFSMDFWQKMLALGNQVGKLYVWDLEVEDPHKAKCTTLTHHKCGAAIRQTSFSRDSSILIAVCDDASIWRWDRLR
In test [5] the test system is Pfeiffer. Nature of the test: Induction of cell cycle arrest in human Pfeiffer cells assessed as accumulation of cells in G0/G1 phase at 5 uM incubated for 2 days by PI/RNase staining based analysis (reference value: 52.3%). The conditions noted are these: time 2 day. The test is classed as functional.
In test [6] the test system is Pfeiffer. Nature of the test: Induction of cell cycle arrest in human Pfeiffer cells assessed as decrease of cells in G2/M phase at 5 uM incubated for 2 days by PI/RNase staining based analysis (reference value: 14.9 %). The test is classed as functional. The settings on record: time 2 day. Also noted: scale not given: the % may be the effect or the level left.
Test [7] has as its system Pfeiffer. The test is described as follows: Inhibition of PRC2 in human Pfeiffer cells assessed as reduction in EZH2 protein level measured after 72 hrs by Western blot analysis. It counts as cell-based. The settings on record: dose 0.6-10 µM, DDE = dose-dependent effect.
Test [8] deals with SUD4. Nature of the test: Induction of cell cycle arrest in human SU-DHL-4 cells assessed as accumulation of cells in G0/G1 phase at 5 uM incubated for 3 days by PI/RNase staining based analysis (reference value: 62.2 %). It counts as functional. The conditions noted are these: time 3 day.
Test [9] has as its target T1, Polycomb protein EED. The test is described as follows: Binding affinity to recombinant N-terminal 6His-SUMO tagged human EED (81 to 441 residues) expressed in Escherichia coli BL21 (DE3) cells assessed as dissociation constant measured after 240 sec by SPR-based binding assay.
Target sequence in this assay (O75530 whole entry, the tested form may be a part): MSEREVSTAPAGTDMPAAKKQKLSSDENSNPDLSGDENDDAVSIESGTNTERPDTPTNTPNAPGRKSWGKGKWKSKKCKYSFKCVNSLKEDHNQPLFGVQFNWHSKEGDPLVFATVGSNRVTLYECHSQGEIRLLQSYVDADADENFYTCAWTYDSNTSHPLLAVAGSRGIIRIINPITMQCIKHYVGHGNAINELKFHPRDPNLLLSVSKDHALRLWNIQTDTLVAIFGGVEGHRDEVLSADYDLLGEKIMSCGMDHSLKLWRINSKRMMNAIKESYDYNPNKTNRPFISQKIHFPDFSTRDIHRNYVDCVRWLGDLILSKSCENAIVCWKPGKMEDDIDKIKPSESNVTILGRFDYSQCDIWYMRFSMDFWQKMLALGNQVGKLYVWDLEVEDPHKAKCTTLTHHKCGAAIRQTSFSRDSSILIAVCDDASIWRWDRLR
Test [10] concerns the target T1, Polycomb protein EED. Nature of the test: Binding affinity to recombinant N-terminal 6His-SUMO tagged human EED (81 to 441 residues) expressed in Escherichia coli BL21 (DE3) cells assessed as binding constant (Koff) measured after 120 sec by SPR-based binding assay.
Target sequence in this assay (O75530 2-441 limits assumed): as the sequence (O75530 2-441 limits assumed) above
Test [11] relates to Pfeiffer. Nature of the test: Inhibition of PRC2 in human Pfeiffer cells assessed as reduction in SUZ12 protein level measured after 72 hrs by Western blot analysis. The test is classed as cell-based. The settings on record: dose 0.6-10 µM, DDE = dose-dependent effect. (In general: Immunoblotting shows a protein as a band on a membrane.)
The subject of test [12] is SUD4. Nature of the test: Antiproliferative activity against human SU-DHL-4 cells assessed as inhibition of cell growth incubated for 72 hrs by CellTiter-Glo assay. The test is classed as functional, cell-based. The settings on record: SU-DHL-4, 72 h.
Test [13] relates to Pfeiffer. Nature of the test: Inhibition of PRC2 in human Pfeiffer cells assessed as reduction in EED protein level measured after 72 hrs by Western blot analysis. The test is classed as cell-based. The conditions noted are these: dose 0.6-10 µM, DDE = dose-dependent effect.
The next test is filed under the species Homo sapiens. The test is described as follows: Binding affinity to EZH2 (39 to 68 residues) (unknown origin)/recombinant N-terminal 6His-SUMO tagged human EED (81 to 441 residues) expressed in Escherichia coli BL21 (DE3) cells assessed as T1rho signal recovery at 50 to 100 uM by NMR-based binding assay. The conditions noted are these: dose 50-100 µM.
The subject of test [14] is Pfeiffer. Nature of the test: Inhibition of PRC2 in human Pfeiffer cells assessed as reduction in H3K27me3 level measured after 72 hrs by Western blot analysis. It counts as cell-based. The conditions noted are these: dose 0.6-10 µM, DDE = dose-dependent effect.
The next test deals with KARPAS-422. The test is described as follows: Antiproliferative activity against human KARPAS-422 cells assessed as inhibition of cell growth incubated for 72 hrs by CellTiter-Glo assay. It counts as functional, cell-based. The conditions noted are these: KARPAS-422, 72 h.
For test [15], the system named is SUD4. The test is described as follows: Induction of cell cycle arrest in human SU-DHL-4 cells assessed as decrease of cells in G2/M phase at 5 uM incubated for 3 days by PI/RNase staining based analysis (reference value: 8.6 %). It counts as functional. Also noted: scale not given: the % may be the effect or the level left. The settings on record: time 3 day.

The next test deals with DB. Nature of the test: Antiproliferative activity against human DB cells assessed as inhibition of cell growth incubated for 72 hrs by CellTiter-Glo assay. The test is classed as functional, cell-based.
The subject of test [16] is Pfeiffer. Nature of the test: Induction of cell cycle arrest in human Pfeiffer cells assessed as decrease of cells in S phase at 5 uM incubated for 2 days by PI/RNase staining based analysis (reference value: 32.8 %). It counts as functional. The arrangement: scale not given: the % may be the effect or the level left. The settings on record: time 2 day.

Structures are written as SMILES. Active and inactive are the calls of the source. The rule behind the calls is not given here.

By IC50 is commonly meant the concentration that inhibits the measured activity by half. As a reminder, the Kd is the constant that tells how readily two partners part at equilibrium.

Take `COc1ccc(CCN2CCC(Nc3nc4ccccc4n3Cc3ccccc3)CC2)cc1`: the IC50 in test [1] is 131 µM.
As for `COc1ccc(CCN2CC[C@H](Nc3nc4ccccc4n3Cc3ccc(F)cc3)C2)cc1`, the IC50 in test [1] was found to be 4.56 µM.
The same measure, in the same setting: next, `COc1ccc(CCNCCCNc2nc3ccccc3n2Cc2ccc(F)cc2)cc1`: 464 µM; `COc1ccc(CNc2ccc(Nc3nc4ccccc4n3Cc3ccc(F)cc3)cn2)cc1`: 32.5 µM.
On the same count and under the same terms, under `COc1ccc(CCN2CCC(Nc3nc4ccccc4n3Cc3ccc(F)c(F)c3)CC2)cc1` stands 56.5 µM; under `COc1ccc(CCN2CCC(Nc3nc4cc(N)ccc4n3Cc3ccc(F)cc3)CC2)cc1`, 63.6 µM.
Take `O=[N+]([O-])c1cccc(CCN2CCC(Nc3nc4ccccc4n3Cc3ccc(F)cc3)CC2)c1`: the IC50 in test [1] came to 341 µM.
The same measure, in the same setting: under `COc1ccc(CCN2CCC(Nc3nc4ccccc4n3Cc3ccc(F)c([N+](=O)[O-])c3)CC2)cc1` stands 61.6 µM.
With `COc1ccc(CCN2CCC(Nc3nc4ccccc4n3Cc3ccc(F)cc3[N+](=O)[O-])CC2)cc1`, the IC50 in test [1] came out at 80.1 µM.
In the case of `COc1ccc(CCN2CCC(Nc3nc4ccccc4n3Cc3ccc([N+](=O)[O-])cc3)CC2)cc1`, in test [1], the IC50 came out at 66.3 µM.
On the same count and under the same terms, under `Cc1ccc(CCN2CCC(Nc3nc4ccccc4n3Cc3ccc(F)cc3)CC2)cc1` stands 87.6 µM; under `COc1ccc(CCN2CCC(Nc3nc4ccccc4n3Cc3ccc(C(F)(F)F)cc3)CC2)cc1`, 60.8 µM; under `Oc1ccccc1CCN1CCC(Nc2nc3ccccc3n2Cc2ccc(F)cc2)CC1`, 175 µM.
On the same count and under the same terms, next, `COc1ccc(CCN2CCC(Nc3nc4c(N)cccc4n3Cc3ccc(F)cc3)CC2)cc1`: 48.6 µM; `Oc1cccc(CCN2CCC(Nc3nc4ccccc4n3Cc3ccc(F)cc3)CC2)c1`: 61.5 µM; `COc1ccc(CN[C@H]2CC[C@@H](Nc3nc4ccccc4n3Cc3ccc(F)cc3)CC2)cc1`: over 500 µM.
As for `COc1ccc(CCN2CCC(Nc3nc4ccccc4n3Cc3ccc(F)cc3)C2)cc1` (centres undefined), the IC50 in the test on Pfeiffer [2] came out at 3.77 µM; in the test on SUD4 [12], 5.87 µM; in the test with KARPAS-422 it was 5.97 µM; in the test on DB, 9.62 µM. Further, the Activity in the test with SUD4 [3] stood at 16%; in the test on Pfeiffer [5], 76.2%; in the test on Pfeiffer [6], 6.2%; in the test on SUD4 [8], 84%; in the test on SUD4 [15], 0%; in the test with Pfeiffer [16], 17.6%. The values for the K on Polycomb protein EED [4] and on Polycomb protein EED [10] were 4500 M⁻¹ s⁻¹ and 0.0205 s⁻¹, respectively. In addition, the inhibition entry in the test with Pfeiffer [7], in the test on Pfeiffer [11], in the test with Pfeiffer [13] and in the test with Pfeiffer [14] was “Dde” in each case. Besides, on Polycomb protein EED [9], the Kd turned out to be 4.56 µM. Also, in the test listed under Homo sapiens, the outcome was Active.
On to `COc1ccc(CCN2CCC(Nc3nc4ccccc4n3Cc3ccc(N)cc3)CC2)cc1`, for which, in test [1], the IC50 is 221 µM.
Turning to `COc1ccc(CCN2CCC(Nc3nc4ccc(N)cc4n3Cc3ccc(F)cc3)CC2)cc1`, the IC50 in [1] came to 64.7 µM.
Same read-out and setting: next, `COc1ccc(CCN2CCC(Nc3nc4ccccc4n3Cc3ccc(C)cc3)CC2)cc1`: 153 µM; `Oc1ccc(CCN2CCC(Nc3nc4ccccc4n3Cc3ccc(F)cc3)CC2)cc1` [DESMETHEYLASTEMIZOLE]: 190 µM; `COc1ccc(CCN2CCC(Nc3nc4ccccc4n3Cc3ccc(F)cc3)CC2)cc1` [ASTEMIZOLE]: 74.2 µM.
The same measure, in the same setting: under `COc1ccc(CN[C@H]2CC[C@H](Nc3nc4ccccc4n3Cc3ccc(F)cc3)CC2)cc1` stands 78.7 µM.
On the same count and under the same terms, under `COc1ccc(CCNCCNc2nc3ccccc3n2Cc2ccc(F)cc2)cc1` stands 11.6 µM; under `COc1ccc(CCN2CCC(Nc3nc4cccc(N)c4n3Cc3ccc(F)cc3)CC2)cc1`, 73.8 µM; under `COc1ccc(CCN2CC(Nc3nc4ccccc4n3Cc3ccc(F)cc3)C2)cc1`, 21.5 µM.
For the compound `COc1ccc(CNc2ccc(Nc3nc4ccccc4n3Cc3ccc(F)cc3)cc2)cc1`, the IC50 in test [1] turned out to be 33.8 µM.

These data come from ChEMBL document CHEMBL5096185, “Structure-Guided Development of Small-Molecule PRC2 Inhibitors Targeting EZH2-EED Interaction” (J Med Chem, 2021).
